Reference: patent US8410117B2, “Imidazopyrimidine derivatives” (Hoffmann-La Roche Inc., priority 2010, dated 2013)

Legend:
human PDE10A = biological target: T1, human PDE10A (Homo sapiens, UniProt Q9Y233); assay: human PDE10A full length Scintillation Proximity Assay (SPA); format: biochemical; conditions: 50 nM cGMP and 50 nM [3H]-cGMP, 20 minutes at room temperature; read-out: PDE10A inhibition IC50
T1 construct: The human PDE10A full length assay; purchased Enzo Life Science, Lausen, Switzerland SE-534
Procedure, shortened: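 Full-length enzyme at 3.75 ng/well in 20 mM HEPES pH 7.5, 10 mM MgCl2, 0.05 mg/ml BSA, with 50 nM cGMP plus 50 nM [3H]-cGMP substrate, 20 min at room temperature. Stopped with YSi-SPA beads in zinc sulphate and counted by scintillation. IC50 from inhibitor concentration series; no-enzyme wells define background.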

rats = conditions: sub-chronic treatment with PCP; cited from earlier work

T1 sequence (Q9Y233 1-779 isoform Q9Y233-1): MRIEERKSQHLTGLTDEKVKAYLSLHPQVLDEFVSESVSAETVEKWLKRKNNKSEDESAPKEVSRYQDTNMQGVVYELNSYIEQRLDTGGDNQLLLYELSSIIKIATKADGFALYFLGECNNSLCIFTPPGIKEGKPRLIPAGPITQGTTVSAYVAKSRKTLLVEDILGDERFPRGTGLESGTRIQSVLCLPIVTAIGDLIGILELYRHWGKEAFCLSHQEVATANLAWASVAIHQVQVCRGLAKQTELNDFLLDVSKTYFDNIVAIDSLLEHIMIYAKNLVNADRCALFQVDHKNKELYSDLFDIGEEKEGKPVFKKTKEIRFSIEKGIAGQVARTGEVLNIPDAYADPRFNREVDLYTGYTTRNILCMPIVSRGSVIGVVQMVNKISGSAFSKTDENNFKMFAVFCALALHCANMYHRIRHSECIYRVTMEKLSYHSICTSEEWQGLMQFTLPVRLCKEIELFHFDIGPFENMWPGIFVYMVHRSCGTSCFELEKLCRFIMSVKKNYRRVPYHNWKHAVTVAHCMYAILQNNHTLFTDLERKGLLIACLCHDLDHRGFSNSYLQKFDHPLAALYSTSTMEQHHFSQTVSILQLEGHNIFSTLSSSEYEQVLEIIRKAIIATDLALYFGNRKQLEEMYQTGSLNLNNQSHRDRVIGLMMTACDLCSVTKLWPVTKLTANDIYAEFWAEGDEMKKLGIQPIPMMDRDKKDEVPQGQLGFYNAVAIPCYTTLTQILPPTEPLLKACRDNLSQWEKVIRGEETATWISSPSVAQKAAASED

Structure (SMILES)	IC50 (human PDE10A) [nM]	melting point [°C]	deficits in the extra-dimensional shift learning (rats)
COc1ncccc1C(=O)Nc1ccn2cc(-c3ccccc3)nc2n1 [Example 78, 2-Methoxy-N-(2-phenylimidazo[1,2-a]pyrimidin-7-yl)nicotinamide]	125	225 to 226	
Cc1ncc(Cl)c(C(=O)Nc2ccn3cc(-c4ccccc4)nc3n2)n1 [Example 79, 5-Chloro-2-methyl-N-(2-phenylimidazo[1,2-a]pyrimidin-7-yl)pyrimidine-4-carboxamide]	247	> 250	
Cc1cc(C(=O)Nc2ccn3cc(-c4ccccc4)nc3n2)ccn1 [Example 80, 2-Methyl-N-(2-phenylimidazo[1,2-a]pyrimidin-7-yl)isonicotinamide]	496	255 to 257	
Cc1cc(C(=O)Nc2ccn3cc(-c4ccccc4)nc3n2)cc(Cl)n1 [Example 81, 2-Chloro-6-methyl-N-(2-phenylimidazo[1,2-a]pyrimidin-7-yl)isonicotinamide]	703	148 to 151	
Cc1nc(CNC(=O)c2cnn(C)c2C(=O)Nc2ccn3cc(-c4ccccc4)nc3n2)cs1 [Example 163, 1-methyl-N4-((2-methylthiazol-4-yl)methyl)-N5-(2-phenylimidazo[1,2-a]pyrimidin-7-yl)-1H-pyrazole-4,5-dicarboxamide]	636		
CCCn1ccc(CNC(=O)c2cnn(C)c2C(=O)Nc2ccn3cc(-c4ccccc4)nc3n2)n1 [Example 164, 1-methyl-N5-(2-phenylimidazo[1,2-a]pyrimidin-7-yl)-N4-((1-propyl-1H-pyrazol-3-yl)methyl)-1H-pyrazole-4,5-dicarboxamide]	725		
Cc1oc(C2CC2)nc1CNC(=O)c1cnn(C)c1C(=O)Nc1ccn2cc(-c3ccccc3)nc2n1 [Example 165, N4-((2-cyclopropyl-5-methyloxazol-4-yl)methyl)-1-methyl-N5-(2-phenylimidazo[1,2-a]pyrimidin-7-yl)-1H-pyrazole-4,5-dicarboxamide]	776		
Cn1ncc(C(=O)NCc2noc(C3CC3)n2)c1C(=O)Nc1ccn2cc(-c3ccccc3)nc2n1 [Example 166, N4-((5-cyclopropyl-1,2,4-oxadiazol-3-yl)methyl)-1-methyl-N5-(2-phenylimidazo[1,2-a]pyrimidin-7-yl)-1H-pyrazole-4,5-dicarboxamide]	812		
Cn1ncc(C(=O)NCc2nc(C3CC3)no2)c1C(=O)Nc1ccn2cc(-c3ccccc3)nc2n1 [Example 167, N4-((3-cyclopropyl-1,2,4-oxadiazol-5-yl)methyl)-1-methyl-N5-(2-phenylimidazo[1,2-a]pyrimidin-7-yl)-1H-pyrazole-4,5-dicarboxamide]	825		
Cc1nc(CNC(=O)c2cnn(C)c2C(=O)Nc2ccn3cc(-c4ccccc4)nc3n2)no1 [Example 168, 1-methyl-N-4-((5-methyl-1,2,4-oxadiazol-3-yl)methyl)-N5-(2-phenylimidazo[1,2-a]pyrimidin-7-yl)-1H-pyrazole-4,5-dicarboxamide]	865		
Cn1cc2c(n1)CN(C(=O)c1cnn(C)c1C(=O)Nc1ccn3cc(-c4ccccc4)nc3n1)C2 [Example 169, 1-methyl-4-(2-methyl-2,4,5,6-tetrahydropyrrolo[3,4-c]pyrazole-5-carbonyl)-N-(2-phenylimidazo[1,2-a]pyrimidin-7-yl)-1H-pyrazole-5-carboxamide]	963		
Cn1ncc(C(=O)NCc2nc3ccccc3o2)c1C(=O)Nc1ccn2cc(-c3ccccc3)nc2n1 [Example 170, N4-(benzo[d]oxazol-2-ylmethyl)-1-methyl-N5-(2-phenylimidazo[1,2-a]pyrimidin-7-yl)-1H-pyrazole-4,5-dicarboxamide]	969		
CC(C)c1noc(CNC(=O)c2cnn(C)c2C(=O)Nc2ccn3cc(-c4ccccc4)nc3n2)n1 [Example 171, N4-((3-isopropyl-1,2,4-oxadiazol-5-yl)methyl)-1-methyl-N5-(2-phenylimidazo[1,2-a]pyrimidin-7-yl)-1H-pyrazole-4,5-dicarboxamide]	989		
COc1ccc(Cc2nccc3cc(OC)c(OC)cc23)cc1OC [papaverine, Papaverine]			attenuate the deficits in the extra-dimensional shift learning
